{"source": "patent US10793601B2", "about": "“Therapeutic spalt-like transcription factor 4 (SALL4) peptide” (National University of Singapore, priority 2016, dated 2020)", "key": {"PTEN": {"tested_on": "PTEN", "assay": "PTEN mRNA in resected SNU398 tumors by real-time PCR", "format": "in vivo, NOD/SCID/gamma mice", "conditions": "harvested SNU398 tumors", "protocol": "FIGS. 7A-7E. Anti-tumor activity of the candidate therapeutic peptide FFW. FIG. 7A: 7.2×10^5 SNU398 cells were inoculated subcutaneously into the right flank of NOD/SCID/gamma mice (NSG mice). Tumors were allowed to grow for one week before peptide treatments were administered every alternate day for a total of five injections. FIG. 7B: Tumor growth was documented by plotting tumor volume against time. […] FIG. 7C: Relative size of tumors resected on day 20. FIG. 7D: tumor weight was determined (n=5). PEN-FFW treated mice had the smallest tumors (μ=88.34 mg) compared to PEN (μ=1550.78 mg), PEN-MUT (μ=1273.46 mg) and PEN-WT (μ=563.46 mg). FIG. 7E: Total RNA was isolated from the resected tumors and expression of PTEN was measured using real-time PCR.\nTumors resected from mice were homogenized in Trizol. Total RNA was extracted and treated with RNase-free DNase (Qiagen). Reverse transcription was carried out using Superscript III Reverse Transcriptase. Quantitative PCR was performed using GoTaq qPCR Master Mix (Promega). Amplification was done with a Corbett Rotor Gene 6000 (Qiagen). Each sample was assayed in triplicate."}, "SNU398 tumor xenografts": {"tested_on": "SNU398 tumor xenografts", "assay": "SNU398 xenograft in NSG mice", "format": "in vivo, NOD/SCID/gamma mice", "protocol": "FIGS. 7A-7E. […] FIG. 7A: 7.2×10^5 SNU398 cells were inoculated subcutaneously into the right flank of NOD/SCID/gamma mice (NSG mice). Tumors were allowed to grow for one week before peptide treatments were administered every alternate day for a total of five injections. FIG. 7B: Tumor growth was documented by plotting tumor volume against time. […] FIG. 7C: Relative size of tumors resected on day 20. FIG. 7D: tumor weight was determined (n=5). […] FIG. 7E: Total RNA was isolated from the resected tumors and expression of PTEN was measured using real-time PCR.\nFIGS. 9A-9E. […] FIG. 9A: PEN-FFW treated SNU398 tumor xenografts were compared to that of Sorafenib treated xenografts. FIG. 9B: PEN-FFW treated PLC8024 tumor xenografts were compared to that of Sorafenib treated xenografts. Mice body weight was measured to access toxicity of various peptides. FIG. 9C: Body weight of mice at day 17. FIG. 9D: Differences of body weight compared to day 0 (As indicated by the arrow in far left of FIG. 7A). FIG. 9E: Body weight of mice at day 19th in the experiment shown in FIG. 9A comparing effect of Sorafenib and PEN-FFW. Data represent mean±s.d. (n=5).\nAll mice were treated in accordance with Responsible Care and Use of Laboratory animals. In the SNU398 in vivo studies, 6-8-week-old female C.B-17 severe combined immunodeficient (SCID) mice (NSG) were inoculated s.c. into the flank with 7.2×10^5 cells in 2:1 PBS/Matrigel (BD Biosciences). The tumours were then allowed to develop to the size of 50-70 mm3 before intraperitoneal injections of the different peptides were given at two to three-day intervals for a total of 5 injections. Mice were randomly grouped in sets of six and treated with PEN (penetratin control), PEN-MUT (mutant control), PEN-WT (wild type control) and PEN-FFW (peptide 47). Tumor volumes were measured every 5 days and tumor weight were measured at the end point. For PEN control, 22.5 mg/kg were given; for PEN-MUT, PEN-WT and PEN-FFW, 35.6 mg/kg, 37 mg/kg and 36 mg/kg were given respectively to the mice according to their body weight Tumor measurements were taken twice weekly using Vernier calipers. Tumor volume was estimated using the following formula: V=0.5×width×width×length. When tumors approached ˜50 mm3, mice were randomized into groups of 5 animals each and received peptides treatment three times weekly by i.p. injection. All statistical analysis was done using a one-way ANOVA and Student's T-test."}, "SNU398": {"tested_on": "SNU398", "assay": "RNA-seq transcriptome analysis of treated SNU398", "format": "cell-based", "conditions": "SNU398 treated 8 hrs", "protocol": "SNU398 were treated PEN, PEN-MUT, PEN-WT & PEN-FFW for 8 hrs and paired-end RNA-seq was performed for the treated samples. RNA-seq reads of each sample were mapped to hg19 using the STAR aligner. Normalization between the samples was based on the proportionality of the numbers of the mapped reads. The expression fold change of a transcript was obtained using linear regression of the reads between the two samples cross all exons. Differential expression between two samples was selected by using the fold change cut off of 2. Hierarchical clustering was performed based on average linkage to generate the clustering tree as well as heat maps. For identification of enriched gene sets or pathways, Gene Set Enrichment Analysis (GSEA) was performed based on the normalized data and using the GSEA tool (broad.mit.edu/gsea/) with msigdb.v5.0."}}, "note": "Where “and” joins values, the source holds several entries; their conditions need not be identical. Identical values can stand only once. Ends that are not written are not given here."}
{"sequence": "RQIKIWFQNRRMKWKKRRKFAKFQWI [PEN-FFW]", "values": [{"measurement": "increase in PTEN expression in tumors compared to PEN control mice", "setting": "PTEN", "value": 9, "unit": "fold"}, {"measurement": "anti-tumor activity benchmarked against Sorafenib", "setting": "SNU398 tumor xenografts; SNU398 xenograft, compared to vehicle treated groups", "value": "stronger anti-tumor activity than Sorafenib"}, {"measurement": "effect on tumor growth", "setting": "SNU398 tumor xenografts; SNU398 xenograft, tumor volume against time", "value": "significant reduced growth rate"}, {"measurement": "tumor weight", "setting": "SNU398 tumor xenografts; mean, tumors resected on day 20, five i.p. injections", "value": "88.34 mg and 88 mg"}, {"measurement": "share of DEGs upregulated", "setting": "SNU398", "value": "more than 99%"}]}
